Experimental data published in ChEMBL document CHEMBL1201862, “PubChem BioAssay data set” (2004).
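Compound exposure: 48 hours, 5 concentrations, 96-well plates. Here, GI50 denotes the concentration required for 50% inhibition of growth.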 The source made the active and inactive calls. Cut-off read from the data, not from the text of the source: active = GI50 up to about 1.1 µM and inactive = higher.

Tests used:
Assay in all cases: inhibition of tumour cell growth, NCI panel, 48 h
786-0 = tested on: 786-0
CCRF-CEM = tested on: CCRF-CEM
DU-145 = tested on: DU-145
K562 = tested on: K562
KM12 = tested on: KM12
M14 = tested on: M14
MDA-MB-231 = tested on: MDA-MB-231
MDA-MB-435 = tested on: MDA-MB-435
NCI-H522 = tested on: NCI-H522
OVCAR-3 = tested on: OVCAR-3
SF-268 = tested on: SF-268
SF-295 = tested on: SF-295
SK-MEL-2 = tested on: SK-MEL-2
SNB-19 = tested on: SNB-19
SNB-75 = tested on: SNB-75
SR = tested on: SR
TK-10 = tested on: TK-10
U-251 = tested on: U-251
UO-31 = tested on: UO-31
MDA-N = tested on: MDA-N

Row | SMILES | GI50 (786-0) | GI50 (CCRF-CEM) | GI50 (DU-145) | GI50 (K562) | GI50 (KM12) | GI50 (M14) | GI50 (MDA-MB-231) | GI50 (MDA-MB-435) | GI50 (NCI-H522) | GI50 (OVCAR-3) | GI50 (SF-268) | GI50 (SF-295) | GI50 (SK-MEL-2) | GI50 (SNB-19) | GI50 (SNB-75) | GI50 (SR) | GI50 (TK-10) | GI50 (U-251) | GI50 (UO-31) | GI50 (MDA-N)
1 | CCN(CC)CC[S+]([O-])c1c2cc(OC)ccc2nc2ccc(OC)cc12 (stereo not drawn) | 2.02 µM (inactive) | 3.14 µM (inactive) | 1.91 µM (inactive) | 5.78 µM (inactive) | 20.6 µM (inactive) | 9.55 µM (inactive) | 13.6 µM (inactive) | 9.46 µM (inactive) | 0.603 µM (active) | 3.39 µM (inactive) | 7.93 µM (inactive) | 21.8 µM (inactive) | 18.6 µM (inactive) | 22.7 µM (inactive) | 19.6 µM (inactive) | 2.72 µM (inactive) | 5.56 µM (inactive) | 20 µM (inactive) | 2.25 µM (inactive) | –
2 | COc1ccc(-c2csc(Cc3nc4c(Br)cc(Br)cc4c(=O)n3-c3ccc(OC)cc3)n2)cc1 | 28.3 µM (inactive) | < 0.01 µM (active) | > 100 µM (inactive) | 0.333 µM (active) | 86.5 µM (inactive) | 20.9 µM (inactive) | 45.7 µM (inactive) | 15.9 µM (inactive) | – | > 100 µM (inactive) | – | 59.4 µM (inactive) | 48 µM (inactive) | 18.9 µM (inactive) | > 100 µM (inactive) | – | 56.6 µM (inactive) | 30.3 µM (inactive) | 35.2 µM (inactive) | 3.7 µM (inactive)
3 | CCOC(=O)c1c(OCC)[nH]c(=O)c(C(c2ccc(F)cc2)c2c(O)c(C(=O)OCC)c(OCC)[nH]c2=O)c1O | 16.4 µM (inactive) | 33.1 µM (inactive) | 11.1 µM (inactive) | 16.5 µM (inactive) | 16.9 µM (inactive) | 24.6 µM (inactive) | 12.6 µM (inactive) | 17.6 µM (inactive) | 18.6 µM (inactive) | 15.4 µM (inactive) | 14.6 µM (inactive) | 17.7 µM (inactive) | 16.6 µM (inactive) | 17.1 µM (inactive) | – | 10.5 µM (inactive) | 25.2 µM (inactive) | 15.2 µM (inactive) | 12.8 µM (inactive) | –
4 | COc1cc2oc(-c3ccc4c(c3)OCO4)c(OC)c(=O)c2c(OC)c1O | 10.9 µM (inactive) | 34.7 µM (inactive) | > 100 µM (inactive) | 34.4 µM (inactive) | > 100 µM (inactive) | > 100 µM (inactive) | 51.6 µM (inactive) | 70.3 µM (inactive) | 21.9 µM (inactive) | 44.2 µM (inactive) | 27.9 µM (inactive) | 41.7 µM (inactive) | – | > 100 µM (inactive) | 33.2 µM (inactive) | – | 56.4 µM (inactive) | 38.4 µM (inactive) | 53 µM (inactive) | > 100 µM (inactive)
5 | O=C(Cn1c2c(c3ccccc31)CCCC2)N1CCOCC1 | > 100 µM (inactive) | > 100 µM (inactive) | – | > 100 µM (inactive) | – | > 100 µM (inactive) | – | > 100 µM (inactive) | – | > 100 µM (inactive) | > 100 µM (inactive) | > 100 µM (inactive) | > 100 µM (inactive) | > 100 µM (inactive) | – | – | > 100 µM (inactive) | – | 25.9 µM (inactive) | > 100 µM (inactive)
6 | Cc1ccc(N2CCN(CCC(=O)O)CC2)cc1 | > 100 µM (inactive) | 52.7 µM (inactive) | > 100 µM (inactive) | 2.94 µM (inactive) | > 100 µM (inactive) | > 100 µM (inactive) | > 100 µM (inactive) | > 100 µM (inactive) | > 100 µM (inactive) | > 100 µM (inactive) | > 100 µM (inactive) | > 100 µM (inactive) | > 100 µM (inactive) | > 100 µM (inactive) | > 100 µM (inactive) | 16.9 µM (inactive) | > 100 µM (inactive) | > 100 µM (inactive) | > 100 µM (inactive) | –
7 | COc1ccccc1/C=C\C(=O)C1COCN1 (stereo not drawn) | 23.9 µM (inactive) | 3.77 µM (inactive) | 17.3 µM (inactive) | 6.98 µM (inactive) | 4.39 µM (inactive) | 50.8 µM (inactive) | 17.6 µM (inactive) | 6.9 µM (inactive) | 16 µM (inactive) | 8.24 µM (inactive) | 21 µM (inactive) | 26.1 µM (inactive) | 21.3 µM (inactive) | 13.1 µM (inactive) | 18.6 µM (inactive) | 1.95 µM (inactive) | 21.2 µM (inactive) | 11.1 µM (inactive) | 16.4 µM (inactive) | –
8 | O=C(O)CC(NC(=O)/C(=C/c1ccccc1O)NC(=O)c1ccccc1)C(=O)O (stereo not drawn) | > 100 µM (inactive) | 33.9 µM (inactive) | – | 74.1 µM (inactive) | > 100 µM (inactive) | > 100 µM (inactive) | > 100 µM (inactive) | 85.9 µM (inactive) | 65.5 µM (inactive) | > 100 µM (inactive) | – | > 100 µM (inactive) | > 100 µM (inactive) | – | 88.1 µM (inactive) | 29.8 µM (inactive) | > 100 µM (inactive) | 54.7 µM (inactive) | 43.4 µM (inactive) | > 100 µM (inactive)
9 | O=C(OCC1CC(C2(O)CCCCC2)C(=O)O1)c1ccccc1 (stereo not drawn) | > 100 µM (inactive) | > 100 µM (inactive) | > 100 µM (inactive) | > 100 µM (inactive) | > 100 µM (inactive) | > 100 µM (inactive) | > 100 µM (inactive) | > 100 µM (inactive) | > 100 µM (inactive) | > 100 µM (inactive) | > 100 µM (inactive) | > 100 µM (inactive) | > 100 µM (inactive) | > 100 µM (inactive) | > 100 µM (inactive) | > 100 µM (inactive) | > 100 µM (inactive) | > 100 µM (inactive) | 55.8 µM (inactive) | –
10 | O=C1Cc2c([nH]c3ccccc23)C2(CC3CCCCN13)OCCO2 (stereo not drawn) | > 100 µM (inactive) | 90.4 µM (inactive) | > 100 µM (inactive) | – | > 100 µM (inactive) | > 100 µM (inactive) | 84.5 µM (inactive) | > 100 µM (inactive) | – | > 100 µM (inactive) | > 100 µM (inactive) | > 100 µM (inactive) | > 100 µM (inactive) | > 100 µM (inactive) | 62.8 µM (inactive) | > 100 µM (inactive) | > 100 µM (inactive) | > 100 µM (inactive) | > 100 µM (inactive) | –
11 | CCCCOC(=O)C1CN2C(=NC1(C(F)(F)F)C(F)(F)F)Sc1ccccc12 (stereo not drawn) | 64.3 µM (inactive) | 30.2 µM (inactive) | 67.1 µM (inactive) | 12.2 µM (inactive) | 27.2 µM (inactive) | 44.1 µM (inactive) | > 100 µM (inactive) | > 10 µM (inactive) | – | 58.5 µM (inactive) | 33.8 µM (inactive) | 36.9 µM (inactive) | 34.8 µM (inactive) | 96.2 µM (inactive) | 35.1 µM (inactive) | – | 30.6 µM (inactive) | 41.4 µM (inactive) | 19.2 µM (inactive) | 60.3 µM (inactive)
12 | CC(=O)O[C@H]1CCC2[C@@H]3CCC4Cc5nc6c(nc5C[C@]4(C)C3CC[C@@]21C)CC1CC[C@@H]2C(CC[C@@]3(C)C2CC[C@@H]3C(C)CCCC(C)C)[C@@]1(C)C6 (stereo partly drawn) | > 100 µM (inactive) | > 100 µM (inactive) | > 100 µM (inactive) | > 100 µM (inactive) | > 100 µM (inactive) | > 100 µM (inactive) | > 100 µM (inactive) | > 100 µM (inactive) | – | > 100 µM (inactive) | > 100 µM (inactive) | > 100 µM (inactive) | > 100 µM (inactive) | > 100 µM (inactive) | > 100 µM (inactive) | – | > 100 µM (inactive) | > 100 µM (inactive) | > 100 µM (inactive) | > 100 µM (inactive)
13 | CCOC(=O)Nn1cnnc1Cc1ccccc1 | > 100 µM (inactive) | > 100 µM (inactive) | – | > 100 µM (inactive) | > 100 µM (inactive) | > 100 µM (inactive) | > 100 µM (inactive) | > 100 µM (inactive) | > 100 µM (inactive) | > 100 µM (inactive) | > 100 µM (inactive) | > 100 µM (inactive) | > 100 µM (inactive) | > 100 µM (inactive) | – | > 100 µM (inactive) | > 100 µM (inactive) | > 100 µM (inactive) | > 100 µM (inactive) | > 100 µM (inactive)
14 | CC(C)=C/C(CC(O)(C(F)(F)F)C(F)(F)F)=N\O | > 100 µM (inactive) | > 100 µM (inactive) | > 100 µM (inactive) | > 100 µM (inactive) | > 100 µM (inactive) | > 100 µM (inactive) | > 100 µM (inactive) | > 100 µM (inactive) | – | – | > 100 µM (inactive) | > 100 µM (inactive) | – | > 100 µM (inactive) | > 100 µM (inactive) | > 100 µM (inactive) | > 100 µM (inactive) | > 100 µM (inactive) | > 100 µM (inactive) | –
15 | C[n+]1c(-c2ccc(/C=N/N=C/c3ccc(-c4cn5ccccc5[n+]4C)cc3)cc2)cn2ccccc21 | > 100 µM (inactive) | > 100 µM (inactive) | – | > 100 µM (inactive) | > 100 µM (inactive) | > 100 µM (inactive) | > 100 µM (inactive) | > 100 µM (inactive) | > 100 µM (inactive) | – | > 100 µM (inactive) | > 100 µM (inactive) | – | > 100 µM (inactive) | > 100 µM (inactive) | > 100 µM (inactive) | > 100 µM (inactive) | > 100 µM (inactive) | > 100 µM (inactive) | > 100 µM (inactive)
